{
  "source": "patent US8999669B2",
  "about": "“Detection and visualization of the cell cycle in living cells” (Ludwig-Maximilians Universitat München, priority 2009, dated 2015)",
  "test_system": "HeLa cells",
  "assay": "mitosis assay with HeLa cell-line stably expressing PCNA3p16-GFP (clone 9.6)",
  "format": "cell-based, human",
  "conditions": "0.1 μg/ml, 13 h time series, 30 min intervals",
  "protocol": "HeLa cell-lines stably expressing PCNA3p16-GFP (clone 9.6; amino acid sequence of SEQ ID NO: 2 fused to GFP) were seeded at 50% confluency in live cell imaging chamber (ibidi μ-Slide 8 well). After incubation over night, normal growth medium (DMEM+10% FCS) was replaced with CO2 adapted live-cell medium (DMEM without phenol red+10% FCS+25 mM Hepes Buffer). Subsequently the imaging slide was placed on an INCell Analyzer 1000 (GE Healthcare) high content microscope equipped with an environmental control chamber, adjusted to 37° C. and 5% CO2. Images were acquired with an 20X/0.45 NA air objective using the appropriate filterset for the fluorescent protein GFP (HQ480—40X/HQ535—50M) and an exposure time of 750 ms. For the live cell imaging 15 fields of view per well were selected and a 13 hour time series started with time intervals of 30 min. After the first time point 0.1 μg/ml Colcemid was added directly to the medium of one well; control cells were left untreated (FIG. 11A). Colcemid is a mitotic inhibitor drug such as Colchicine, which depolymerises microtubules and limits microtubule formation (inactivates spindle fibre formation), thus arresting cells in metaphase.\nThe acquired data set was analyzed with the automated image evaluation and quantification program INCell workstation. […] The amount of mitotic cells per time point was counted and evaluated.",
  "data": [
    {"smiles": "CN[C@H]1CCc2cc(OC)c(OC)c(OC)c2-c2ccc(OC)c(=O)cc21", "note": "[colcemid, Colcemid]", "values": [
      {"measurement": "mitotic cells in treated cell population", "result": "increase of mitotic cells"}
    ]}
  ]
}
